Reference: ChEMBL document CHEMBL5291721, “A preclinical secondary pharmacology resource illuminates target-adverse drug reaction associations of marketed drugs” (Nat Commun, 2023)

What was measured:
Adenosine receptor A3 [1] = molecular target: T1, Adenosine receptor A3 (Homo sapiens, UniProt P0DMS8)
T1 sequence (P0DMS8 whole entry): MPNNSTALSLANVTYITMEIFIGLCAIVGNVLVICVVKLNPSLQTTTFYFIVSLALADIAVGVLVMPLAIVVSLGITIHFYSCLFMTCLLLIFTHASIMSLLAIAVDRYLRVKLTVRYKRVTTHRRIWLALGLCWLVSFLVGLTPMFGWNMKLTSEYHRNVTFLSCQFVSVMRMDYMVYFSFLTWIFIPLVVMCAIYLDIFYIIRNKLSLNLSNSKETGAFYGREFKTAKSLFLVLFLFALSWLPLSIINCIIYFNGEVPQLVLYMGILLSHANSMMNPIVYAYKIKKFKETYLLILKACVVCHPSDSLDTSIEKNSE

Progesterone receptor = molecular target: T2, Progesterone receptor (Homo sapiens, UniProt P06401); type: functional
T2 sequence (P06401 whole entry): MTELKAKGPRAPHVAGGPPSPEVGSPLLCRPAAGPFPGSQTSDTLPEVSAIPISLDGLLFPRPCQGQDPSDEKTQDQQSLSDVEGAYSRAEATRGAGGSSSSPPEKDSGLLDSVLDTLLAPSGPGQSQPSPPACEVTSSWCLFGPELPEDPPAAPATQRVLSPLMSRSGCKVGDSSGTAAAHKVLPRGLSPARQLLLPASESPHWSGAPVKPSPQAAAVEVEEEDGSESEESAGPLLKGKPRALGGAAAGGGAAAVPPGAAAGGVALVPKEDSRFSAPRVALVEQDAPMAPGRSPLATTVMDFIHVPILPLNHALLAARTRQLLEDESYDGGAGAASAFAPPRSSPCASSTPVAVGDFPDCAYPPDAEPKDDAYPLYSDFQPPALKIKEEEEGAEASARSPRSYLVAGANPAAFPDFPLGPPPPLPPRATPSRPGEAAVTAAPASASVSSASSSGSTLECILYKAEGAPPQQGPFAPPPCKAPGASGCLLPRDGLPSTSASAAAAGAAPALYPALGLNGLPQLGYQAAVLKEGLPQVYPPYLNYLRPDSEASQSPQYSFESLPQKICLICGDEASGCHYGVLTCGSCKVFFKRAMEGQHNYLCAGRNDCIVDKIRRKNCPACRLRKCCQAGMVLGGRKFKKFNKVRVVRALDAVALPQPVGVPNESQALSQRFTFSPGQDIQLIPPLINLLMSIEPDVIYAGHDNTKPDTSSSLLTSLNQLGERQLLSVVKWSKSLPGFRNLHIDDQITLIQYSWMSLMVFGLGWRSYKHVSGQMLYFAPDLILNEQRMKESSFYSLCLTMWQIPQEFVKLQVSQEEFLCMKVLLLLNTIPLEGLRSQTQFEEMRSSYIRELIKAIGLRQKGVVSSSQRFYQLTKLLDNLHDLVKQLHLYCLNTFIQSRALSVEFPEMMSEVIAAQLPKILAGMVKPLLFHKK

Cannabinoid receptor 1 = Cannabinoid receptor 1 (Homo sapiens, UniProt P21554); type: functional, cell-based
[2] = molecular target: 3',5'-cyclic-AMP phosphodiesterase 4D (Homo sapiens, UniProt Q08499); type: functional
[3] = molecular target: 5-hydroxytryptamine receptor 2B (Homo sapiens, UniProt P41595); type: functional, cell-based
[4] = molecular target: Growth hormone secretagogue receptor type 1 (Homo sapiens, UniProt Q92847)
[5] = molecular target: Gamma-aminobutyric acid receptor subunit alpha-1 (Rattus norvegicus, UniProt P62813); type: functional
Adenosine receptor A3 [6] = molecular target: T1, Adenosine receptor A3; remark: listed apart in the source
Motilin receptor = Motilin receptor (Homo sapiens, UniProt O43193)
Vasopressin V1a receptor = Vasopressin V1a receptor (Homo sapiens, UniProt P37288)
[7] = molecular target: T3, Equilibrative nucleoside transporter 1 (Homo sapiens, UniProt Q99808)
T3 sequence (Q99808 whole entry): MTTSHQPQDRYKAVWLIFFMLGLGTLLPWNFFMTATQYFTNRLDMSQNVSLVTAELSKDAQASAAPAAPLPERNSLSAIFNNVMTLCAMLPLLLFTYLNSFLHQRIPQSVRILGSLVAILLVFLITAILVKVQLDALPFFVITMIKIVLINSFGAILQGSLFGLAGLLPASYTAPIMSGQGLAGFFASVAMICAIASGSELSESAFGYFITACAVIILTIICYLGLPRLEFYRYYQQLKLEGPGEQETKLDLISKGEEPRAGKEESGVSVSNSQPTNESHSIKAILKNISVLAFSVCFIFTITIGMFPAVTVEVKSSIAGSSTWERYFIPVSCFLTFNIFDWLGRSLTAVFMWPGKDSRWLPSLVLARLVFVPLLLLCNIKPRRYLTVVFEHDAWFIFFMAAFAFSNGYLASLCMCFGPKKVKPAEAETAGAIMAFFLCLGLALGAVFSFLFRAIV

Adenosine receptor A2a = Adenosine receptor A2a (Homo sapiens, UniProt P29274)
[8] = molecular target: T4, 5-hydroxytryptamine receptor 2C (Homo sapiens, UniProt P28335)
T4 sequence (P28335 whole entry): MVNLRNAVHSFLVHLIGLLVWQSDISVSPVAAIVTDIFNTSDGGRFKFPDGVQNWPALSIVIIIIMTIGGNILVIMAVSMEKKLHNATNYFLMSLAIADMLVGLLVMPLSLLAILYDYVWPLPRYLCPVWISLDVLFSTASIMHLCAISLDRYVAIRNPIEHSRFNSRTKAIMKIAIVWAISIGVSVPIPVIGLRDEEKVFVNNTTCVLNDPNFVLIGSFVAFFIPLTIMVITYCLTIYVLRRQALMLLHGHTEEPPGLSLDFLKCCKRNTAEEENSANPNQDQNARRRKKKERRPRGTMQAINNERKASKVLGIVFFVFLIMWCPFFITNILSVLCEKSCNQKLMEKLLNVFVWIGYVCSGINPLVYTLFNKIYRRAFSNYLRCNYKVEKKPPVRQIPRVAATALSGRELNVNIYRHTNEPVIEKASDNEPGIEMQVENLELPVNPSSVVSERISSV

Histamine H2 receptor = Histamine H2 receptor (Homo sapiens, UniProt P25021); type: functional, cell-based
Also: assay procedure not described here.

Chain of Cannabinoid receptor 1 (P21554 whole entry): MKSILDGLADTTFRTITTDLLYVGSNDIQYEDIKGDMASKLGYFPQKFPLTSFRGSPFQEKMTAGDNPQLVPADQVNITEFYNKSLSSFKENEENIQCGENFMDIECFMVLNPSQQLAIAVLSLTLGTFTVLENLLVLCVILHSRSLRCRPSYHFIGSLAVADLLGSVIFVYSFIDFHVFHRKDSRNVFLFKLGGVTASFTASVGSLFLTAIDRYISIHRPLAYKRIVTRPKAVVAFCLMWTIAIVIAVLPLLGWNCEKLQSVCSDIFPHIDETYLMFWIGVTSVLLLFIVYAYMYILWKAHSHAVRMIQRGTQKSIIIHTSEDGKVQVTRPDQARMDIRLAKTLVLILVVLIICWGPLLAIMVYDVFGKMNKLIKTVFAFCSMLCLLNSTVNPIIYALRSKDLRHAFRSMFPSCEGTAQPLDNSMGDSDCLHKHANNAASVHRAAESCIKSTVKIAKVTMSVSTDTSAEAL
Chain of Gamma-aminobutyric acid receptor subunit alpha-1 (P62813 whole entry): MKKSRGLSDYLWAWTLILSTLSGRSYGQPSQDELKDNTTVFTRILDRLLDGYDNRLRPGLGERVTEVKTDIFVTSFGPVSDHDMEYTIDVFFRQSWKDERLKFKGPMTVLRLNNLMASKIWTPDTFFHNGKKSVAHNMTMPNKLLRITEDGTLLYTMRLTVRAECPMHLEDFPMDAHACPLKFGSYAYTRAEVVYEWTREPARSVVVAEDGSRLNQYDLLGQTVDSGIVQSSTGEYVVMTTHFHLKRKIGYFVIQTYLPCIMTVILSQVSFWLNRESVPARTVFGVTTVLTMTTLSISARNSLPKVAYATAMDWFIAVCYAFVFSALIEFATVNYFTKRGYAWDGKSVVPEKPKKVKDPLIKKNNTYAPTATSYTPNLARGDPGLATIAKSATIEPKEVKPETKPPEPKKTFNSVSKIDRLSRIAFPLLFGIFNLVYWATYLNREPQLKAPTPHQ
Chain of Vasopressin V1a receptor (P37288 whole entry): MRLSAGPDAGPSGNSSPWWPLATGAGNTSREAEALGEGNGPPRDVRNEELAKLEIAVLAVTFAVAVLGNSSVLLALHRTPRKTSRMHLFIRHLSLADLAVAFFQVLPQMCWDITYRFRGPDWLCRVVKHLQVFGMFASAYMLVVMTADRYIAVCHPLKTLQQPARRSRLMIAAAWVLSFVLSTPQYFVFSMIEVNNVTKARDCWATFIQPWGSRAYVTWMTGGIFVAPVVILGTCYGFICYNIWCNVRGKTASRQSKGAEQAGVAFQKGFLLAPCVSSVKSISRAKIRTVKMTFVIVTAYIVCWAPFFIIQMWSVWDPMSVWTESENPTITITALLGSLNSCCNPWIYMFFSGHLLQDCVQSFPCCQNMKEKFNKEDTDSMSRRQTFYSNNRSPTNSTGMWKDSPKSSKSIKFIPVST
Chain of Adenosine receptor A2a (P29274 whole entry): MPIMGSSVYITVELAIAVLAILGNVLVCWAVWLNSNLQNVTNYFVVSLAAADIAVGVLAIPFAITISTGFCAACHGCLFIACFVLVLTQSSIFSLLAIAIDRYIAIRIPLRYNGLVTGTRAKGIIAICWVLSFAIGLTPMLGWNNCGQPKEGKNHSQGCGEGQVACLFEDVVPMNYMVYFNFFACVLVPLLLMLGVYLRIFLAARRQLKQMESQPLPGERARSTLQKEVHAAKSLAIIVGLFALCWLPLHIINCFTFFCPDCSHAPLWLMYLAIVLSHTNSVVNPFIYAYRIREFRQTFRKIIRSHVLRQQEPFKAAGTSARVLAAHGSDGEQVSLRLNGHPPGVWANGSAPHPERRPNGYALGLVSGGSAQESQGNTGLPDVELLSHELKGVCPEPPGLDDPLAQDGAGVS
Chain of Motilin receptor (O43193 whole entry): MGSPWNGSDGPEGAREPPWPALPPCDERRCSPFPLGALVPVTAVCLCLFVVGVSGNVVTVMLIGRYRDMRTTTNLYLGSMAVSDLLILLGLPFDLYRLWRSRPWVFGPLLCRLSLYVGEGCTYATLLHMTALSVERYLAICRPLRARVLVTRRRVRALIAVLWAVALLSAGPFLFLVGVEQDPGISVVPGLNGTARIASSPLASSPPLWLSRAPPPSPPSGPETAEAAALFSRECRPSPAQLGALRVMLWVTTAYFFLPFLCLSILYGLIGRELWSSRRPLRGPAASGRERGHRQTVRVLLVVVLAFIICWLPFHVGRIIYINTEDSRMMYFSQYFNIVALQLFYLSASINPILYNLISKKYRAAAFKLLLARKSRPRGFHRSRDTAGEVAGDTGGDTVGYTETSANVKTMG
Chain of Growth hormone secretagogue receptor type 1 (Q92847 whole entry): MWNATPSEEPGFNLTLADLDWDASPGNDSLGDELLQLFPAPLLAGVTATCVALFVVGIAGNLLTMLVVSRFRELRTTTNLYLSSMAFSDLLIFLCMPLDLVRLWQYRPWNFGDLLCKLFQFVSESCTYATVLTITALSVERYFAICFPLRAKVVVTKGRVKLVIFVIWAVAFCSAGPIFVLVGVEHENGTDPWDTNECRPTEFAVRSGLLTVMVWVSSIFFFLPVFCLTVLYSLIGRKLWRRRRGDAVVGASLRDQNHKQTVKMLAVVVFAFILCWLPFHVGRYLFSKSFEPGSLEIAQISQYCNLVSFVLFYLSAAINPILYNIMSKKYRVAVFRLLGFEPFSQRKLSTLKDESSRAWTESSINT
Chain of 3',5'-cyclic-AMP phosphodiesterase 4D (Q08499 whole entry): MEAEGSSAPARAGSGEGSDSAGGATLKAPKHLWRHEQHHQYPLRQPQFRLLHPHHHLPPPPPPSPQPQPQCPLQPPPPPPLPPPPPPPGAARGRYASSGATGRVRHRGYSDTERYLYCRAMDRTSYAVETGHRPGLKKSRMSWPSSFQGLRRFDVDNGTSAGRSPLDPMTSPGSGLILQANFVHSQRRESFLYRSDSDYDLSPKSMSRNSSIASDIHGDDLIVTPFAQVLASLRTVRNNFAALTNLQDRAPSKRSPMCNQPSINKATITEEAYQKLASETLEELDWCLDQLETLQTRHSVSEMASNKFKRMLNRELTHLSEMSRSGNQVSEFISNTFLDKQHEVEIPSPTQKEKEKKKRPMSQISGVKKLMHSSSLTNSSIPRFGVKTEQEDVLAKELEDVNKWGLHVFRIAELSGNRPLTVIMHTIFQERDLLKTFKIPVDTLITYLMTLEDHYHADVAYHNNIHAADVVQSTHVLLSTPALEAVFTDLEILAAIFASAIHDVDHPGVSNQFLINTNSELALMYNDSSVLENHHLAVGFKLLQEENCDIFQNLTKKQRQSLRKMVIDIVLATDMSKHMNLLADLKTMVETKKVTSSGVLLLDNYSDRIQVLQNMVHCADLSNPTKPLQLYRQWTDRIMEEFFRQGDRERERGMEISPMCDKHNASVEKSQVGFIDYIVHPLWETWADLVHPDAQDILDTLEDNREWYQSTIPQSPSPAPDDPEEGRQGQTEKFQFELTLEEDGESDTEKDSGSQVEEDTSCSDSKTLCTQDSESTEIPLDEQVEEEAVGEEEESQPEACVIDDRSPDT
Chain of 5-hydroxytryptamine receptor 2B (P41595 whole entry): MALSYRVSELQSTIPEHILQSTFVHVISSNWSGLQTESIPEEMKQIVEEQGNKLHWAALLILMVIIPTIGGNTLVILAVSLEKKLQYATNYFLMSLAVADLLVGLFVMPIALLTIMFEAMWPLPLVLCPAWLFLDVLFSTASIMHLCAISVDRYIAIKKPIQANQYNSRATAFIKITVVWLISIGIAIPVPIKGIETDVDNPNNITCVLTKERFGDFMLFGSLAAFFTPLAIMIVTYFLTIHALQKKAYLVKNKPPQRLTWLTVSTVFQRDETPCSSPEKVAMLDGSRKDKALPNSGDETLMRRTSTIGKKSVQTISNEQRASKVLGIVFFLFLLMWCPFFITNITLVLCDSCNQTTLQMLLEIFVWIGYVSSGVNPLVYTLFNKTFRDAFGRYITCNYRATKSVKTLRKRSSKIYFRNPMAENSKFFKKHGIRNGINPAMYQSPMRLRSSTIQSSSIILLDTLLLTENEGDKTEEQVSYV
Chain of Histamine H2 receptor (P25021 whole entry): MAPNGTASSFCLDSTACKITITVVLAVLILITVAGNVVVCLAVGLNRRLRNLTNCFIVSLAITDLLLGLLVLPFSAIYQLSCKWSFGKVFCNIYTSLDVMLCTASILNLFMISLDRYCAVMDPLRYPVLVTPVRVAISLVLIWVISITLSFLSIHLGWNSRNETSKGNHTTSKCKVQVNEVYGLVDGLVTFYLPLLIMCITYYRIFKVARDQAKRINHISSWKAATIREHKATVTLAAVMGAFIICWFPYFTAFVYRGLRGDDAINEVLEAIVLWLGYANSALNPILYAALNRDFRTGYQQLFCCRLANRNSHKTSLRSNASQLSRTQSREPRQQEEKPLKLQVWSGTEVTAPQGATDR

Compound	AC50 (Adenosine receptor A3 [1]) [µM]	AC50 (Progesterone receptor) [µM]	AC50 (Cannabinoid receptor 1) [µM]	AC50 [2] [µM]	AC50 [3] [µM]	AC50 [4] [µM]	AC50 [5] [µM]	AC50 (Adenosine receptor A3 [6]) [µM]	AC50 (Motilin receptor) [µM]	AC50 (Vasopressin V1a receptor) [µM]	AC50 [7] [µM]	AC50 (Adenosine receptor A2a) [µM]	AC50 [8] [µM]	AC50 (Histamine H2 receptor) [µM]
C[N+](C)(C)C[C@H](O)CC(=O)[O-] [LEVOCARNITINE]	> 30													
CN(C)CCC[C@@]1(c2ccc(F)cc2)OCc2cc(C#N)ccc21 [ESCITALOPRAM]		> 30	> 30	> 30	> 30	> 30	> 30	> 30	> 30	> 30	> 30	> 30		
C[C@H](CCC(=O)O)[C@H]1CC[C@H]2[C@@H]3[C@@H](O)C[C@@H]4C[C@H](O)CC[C@]4(C)[C@H]3CC[C@]12C [URSODIOL]			> 30	> 30	> 30	> 30	> 30	> 30	> 30	> 30	> 30	> 30	> 30	
CN1C[C@H](C(=O)N[C@]2(C)O[C@@]3(O)[C@@H]4CCCN4C(=O)[C@H](Cc4ccccc4)N3C2=O)C=C2c3cccc4[nH]cc(c34)C[C@H]21 [ERGOTAMINE]		> 30	> 30	> 30	> 10	> 30	> 30	> 30	> 30	> 30	> 30	> 30	3.8	
C[C@H]1O[C@@H](n2cc(F)c(=O)[nH]c2=O)[C@H](O)[C@@H]1O [DOXIFLURIDINE]	> 30													
N#Cc1ccc2c(c1)N(CCCN1CCC(O)CC1)c1ccccc1S2 [PERICIAZINE]	> 30													
CN(C)[C@@H]1C(O)=C(C(N)=O)C(=O)[C@@]2(O)C(O)=C3C(=O)c4c(O)ccc(Cl)c4[C@@](C)(O)[C@H]3C[C@@H]12 [CHLORTETRACYCLINE]	> 30													
O=C(O)COc1ccc(C(=O)c2cccs2)c(Cl)c1Cl	> 30													
CC(C)c1nc(N(C)S(C)(=O)=O)nc(-c2ccc(F)cc2)c1/C=C/[C@@H](O)C[C@@H](O)CC(=O)O [ROSUVASTATIN]		> 30	> 30	4.16	> 30	> 30	> 30	> 30	> 30	> 30	> 30	> 30	> 30	> 30
CN(C)CC[C@@H](c1ccc(Cl)cc1)c1ccccn1 [DEXCHLORPHENIRAMINE]		> 30	> 30	> 10	> 30	> 30	> 30	> 30	> 30	> 30	> 30	> 30	28	> 30
